{
  "source": "paper PMC7789494",
  "about": "(Microbial Cell Factories, 2021)",
  "target": "T1, PcCDHTr (Phanerodontia chrysosporium, UniProt Q01738)",
  "T1 construct": "gene CDH-1; full two-domain flavocytochrome, native signal peptide (cleaved), untagged, secreted by Trichoderma reesei delta-xyr1; 83 kDa by SDS-PAGE",
  "T1 sequence (Q01738 19-773)": "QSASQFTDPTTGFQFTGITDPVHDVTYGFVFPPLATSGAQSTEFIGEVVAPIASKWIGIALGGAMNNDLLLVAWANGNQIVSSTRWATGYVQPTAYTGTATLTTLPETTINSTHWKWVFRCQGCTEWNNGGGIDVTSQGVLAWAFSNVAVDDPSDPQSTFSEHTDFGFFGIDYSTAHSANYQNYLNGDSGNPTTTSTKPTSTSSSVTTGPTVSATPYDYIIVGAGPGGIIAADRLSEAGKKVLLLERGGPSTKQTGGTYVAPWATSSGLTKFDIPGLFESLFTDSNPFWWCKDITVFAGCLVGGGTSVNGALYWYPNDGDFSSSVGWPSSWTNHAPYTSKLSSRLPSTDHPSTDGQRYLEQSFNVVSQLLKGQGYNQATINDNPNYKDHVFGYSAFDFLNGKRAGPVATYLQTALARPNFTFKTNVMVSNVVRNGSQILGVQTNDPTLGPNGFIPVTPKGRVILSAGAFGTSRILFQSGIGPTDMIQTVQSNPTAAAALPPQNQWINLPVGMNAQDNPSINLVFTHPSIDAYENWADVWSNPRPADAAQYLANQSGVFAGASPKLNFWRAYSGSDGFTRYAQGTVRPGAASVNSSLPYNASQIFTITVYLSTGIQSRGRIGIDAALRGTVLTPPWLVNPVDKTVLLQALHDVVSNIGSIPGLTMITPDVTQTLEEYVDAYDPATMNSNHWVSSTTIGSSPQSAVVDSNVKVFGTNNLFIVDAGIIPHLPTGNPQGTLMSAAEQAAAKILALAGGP",
  "test": "TCA precipitation, released FAD by A450",
  "assay_type": "binding",
  "conditions": "co-purified cofactor",
  "data": [
    {"smiles": "Cc1cc2nc3c(=O)[nH]c(=O)nc-3n(C[C@H](O)[C@H](O)[C@H](O)COP(=O)(O)OP(=O)(O)OC[C@H]3O[C@@H](n4cnc5c(N)ncnc54)[C@H](O)[C@@H]3O)c2cc1C", "note": "[FAD]", "values": [
      {"measurement": "FAD occupancy", "result": 70, "unit": "%"}
    ]}
  ]
}
